Assay results: patent US20250051375A1, “ANTI-HIV COMPOUNDS” (Gilead Sciences, Inc., priority 2023, published 2025)
Converted amounts (≈) assume the structure as drawn. Where two headings read alike, the source gives them in different places.

Key:
[1] = tested on: HIV-1 IIIB strain; experiment: MT-4 HIV Wild Type Virus Infection Assay (IIIB Virus); type: cell-based; conditions: MT-4 cells acutely infected with HIV-1 IIIB, 5 day incubation, Cell-titer glo
Procedure, shortened: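 MT-4 cells at 2×10^6 cells/ml in RPMI/10% FBS were acutely infected with HIV-1 IIIB for 1 h at 37° C, diluted 25× and added to serially diluted compounds. After 5 days at 37° C, viability read by CellTiter-Glo luminescence; EC50 from dose-response curves.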

[2] = target: bovine intestinal alkaline phosphatase (Bos taurus (Bovine), UniProt P19111); experiment: BiALP: conversion by bovine intestinal alkaline phosphatase; type: in vitro ADME; conditions: 2 μM substrate, 100 ng/mL iALP, Tris pH 7.8, 37° C., 60 minutes; for [Intermediate A] or [Amprenavir]: parent formed
Procedure, shortened: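 LC-MS (positive mode) quantified analyte/internal-standard peak area ratios, referenced to 2 μM parent product. This followed a 60 min, 37° C reaction of 2 μM substrate in Tris buffer pH 7.8 (1 mM MgCl2, 1 mM ZnCl2) containing 100 ng/mL iALP or buffer alone, run in triplicate.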

[3] = PBS Stability Assay; type: physicochemical; conditions: phosphate buffered saline pH 7.4; for half-life at 2 μM: buffer, pH 7.4, 2 μM, read-out: PBS T½
Procedure, shortened: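 Half-life derives from first-order exponential decline of % compound remaining, quantified by LC-MS analyte/internal-standard peak-area ratio. Compound (2 μM final) sat in pH 7.4 phosphate-buffered saline, with aliquots quenched into acidified acetonitrile containing labetalol from 0 to 120 min.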

[4] = Solubility in FaSSIF; conditions: for solubility at 2 h: 23 °C, pH 6.5, fassif, thermodynamic from solid
Procedure, shortened: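 Concentration measured by HPLC-UV after solid compound was dosed at 5 mg/mL into pH 6.5 fasted-state simulated intestinal fluid containing taurocholate and lecithin (4:1 molar) and vortexed.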

[5] = Human immunodeficiency virus 1, IIIB, MT4, 120 h

Chain of bovine intestinal alkaline phosphatase (P19111 20-506): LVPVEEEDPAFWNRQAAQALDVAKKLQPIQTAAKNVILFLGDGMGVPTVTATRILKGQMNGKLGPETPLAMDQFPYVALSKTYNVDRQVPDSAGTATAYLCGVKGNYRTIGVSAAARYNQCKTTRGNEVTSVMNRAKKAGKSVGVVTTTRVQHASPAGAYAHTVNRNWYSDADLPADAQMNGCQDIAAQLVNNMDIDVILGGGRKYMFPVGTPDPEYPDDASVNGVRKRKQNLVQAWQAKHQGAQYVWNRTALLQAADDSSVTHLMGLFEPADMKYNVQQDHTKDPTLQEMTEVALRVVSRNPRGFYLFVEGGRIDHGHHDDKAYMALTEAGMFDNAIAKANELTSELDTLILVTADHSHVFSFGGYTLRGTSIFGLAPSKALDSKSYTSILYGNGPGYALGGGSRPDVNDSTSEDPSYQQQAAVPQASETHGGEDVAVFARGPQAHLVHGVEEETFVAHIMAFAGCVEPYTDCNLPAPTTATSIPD

Compound: COC(=O)N[C@H](C(=O)N[C@@H](Cc1ccc(C#Cc2cnc(N3CC4CCC(C3)N4C3COC3)nc2)cc1)[C@H](CN(Cc1c(F)cc(-c2ccn(C(F)F)n2)cc1F)NC(=O)[C@@H](NC(=O)OC)C(C)(C)C(F)(F)F)OC(=O)CC(C)(C)c1c(CC(=O)NCc2ccc(C(F)F)cc2)cc(C)cc1OP(=O)(O)O)C(C)(C)C(F)(F)F [Example 50, (5S,10S,11S,14S)-8-(4-(1-(difluoromethyl)-1H-pyrazol-3-yl)-2,6-difluorobenzyl)-11-(4-((2-(8-(oxetan-3-yl)-3,8-diazabicyclo[3.2.1]octan-3-yl)pyrimidin-5-yl)ethynyl)benzyl)-3,6,13,16-tetraoxo-5,14-bis(1,1,1-trifluoro-2-methylpropan-2-yl)-2,17-dioxa-4,7,8,12,15-pentaazaoctadecan-10-yl 3-(2-(2-((4-(difluoromethyl)benzyl)amino)-2-oxoethyl)-4-methyl-6-(phosphonooxy)phenyl)-3-methylbutanoate]
- EC50 [1, 5]: 1720 nM
- [Compound] [2]: 2228.1 nM
- biALP Intermediate A or [Amprenavir] (% of total) [2]: 0 % of total
- [Intermediate A] or [Amprenavir] [2]: 0.3 nM
- half-life at 2 μM [3]: 8.26 h
- solubility at 2 h [4]: < 1000 µg/mL

Compound: COC(=O)N[C@H](C(=O)N[C@@H](Cc1ccc(C#Cc2cnc(N3CC4CCC(C3)N4C3COC3)nc2)cc1)[C@H](CN(Cc1c(F)cc(-c2ccn(C(F)F)n2)cc1F)NC(=O)[C@@H](NC(=O)OC)C(C)(C)C(F)(F)F)OC(=O)O[C@H](C)OC(=O)CC(C)(C)c1c(CC(=O)O)cc(C)cc1OP(=O)(O)O)C(C)(C)C(F)(F)F [Example 65]
- EC50 ([1]; read-out: EC50): 12.6 nM
- [Compound] [2]: 1224.6 nM
- PBS T½ ([3]; 2 μM): 11.15 h
- FaSSIF (pH 6.5) solubility ([4]; FaSSIF pH 6.5, dose 5 mg/mL, 2-hour incubation, ambient temperature): 1310 μg/mL

Compound: COC(=O)N[C@H](C(=O)N[C@@H](Cc1ccc(C#Cc2cnc(N3CC4CCC(C3)N4C3COC3)nc2)cc1)[C@H](CN(Cc1c(F)cc(-c2ccn(C(F)F)n2)cc1F)NC(=O)[C@@H](NC(=O)OC)C(C)(C)C(F)(F)F)OC(=O)CC(C)(C)c1c(CC(=O)N2CC(C(=O)O)CC(C(=O)O)C2)cc(C)cc1OP(=O)(O)O)C(C)(C)C(F)(F)F (stereo partly shown) [Example 67]
- EC50 [1, 5]: 205 nM
- [Compound] [2]: 1747.2 nM
- biALP Intermediate A or [Amprenavir] (% of total) [2]: 9.1 % of total
- [Intermediate A] or [Amprenavir] [2]: 175.4 nM
- half-life at 2 μM [3]: 4.32 h
- solubility at 2 h [4]: 3160 µg/mL (≈ 1930 µM)

Compound: COC(=O)N[C@H](C(=O)N[C@@H](Cc1ccc(C#Cc2cnc(N3CC4CCC(C3)N4C3COC3)nc2)cc1)[C@H](CN(Cc1c(F)cc(-c2ccn(C(F)F)n2)cc1F)NC(=O)[C@@H](NC(=O)OC)C(C)(C)C(F)(F)F)OC(=O)OCOC(=O)CC(C)(C)c1c(CC(=O)N[C@@H](CC(=O)O)C(=O)O)cc(C)cc1OP(=O)(O)O)C(C)(C)C(F)(F)F [Example 68]
- EC50 [1, 5]: 5.9 nM
- [Compound] [2]: 1478.2 nM
- half-life at 2 μM [3]: 6.27 h
- solubility at 2 h [4]: 4440 µg/mL (≈ 2650 µM)

Compound: COC(=O)N[C@H](C(=O)N[C@@H](Cc1ccc(C#Cc2cnc(N3CC4CCC(C3)N4C3COC3)nc2)cc1)[C@H](CN(Cc1c(F)cc(-c2ccn(C(F)F)n2)cc1F)NC(=O)[C@@H](NC(=O)OC)C(C)(C)C(F)(F)F)OC(=O)OCOC(=O)CC(C)(C)c1c(CC(=O)NCP(=O)(O)O)cc(C)cc1OP(=O)(O)O)C(C)(C)C(F)(F)F [Example 69]
- EC50 [1, 5]: 3.5 nM
- [Compound] [2]: 1578.5 nM
- half-life at 2 μM [3]: 13.1 h
- solubility at 2 h [4]: 4950 µg/mL (≈ 3000 µM)

Compound: COC(=O)N[C@H](C(=O)N[C@@H](Cc1ccc(C#Cc2cnc(N3CC4CCC(C3)N4C3COC3)nc2)cc1)[C@H](CN(Cc1c(F)cc(-c2ccn(C(F)F)n2)cc1F)NC(=O)[C@@H](NC(=O)OC)C(C)(C)C(F)(F)F)OC(=O)OCOC(=O)CC(C)(C)c1c(CC(=O)N[C@@H](CCC(=O)O)C(=O)O)cc(C)cc1OP(=O)(O)O)C(C)(C)C(F)(F)F [Example 70]
- EC50 [1, 5]: 6.6 nM
- [Compound] [2]: 1164.8 nM
- half-life at 2 μM [3]: 5.27 h
- solubility at 2 h [4]: 5570 µg/mL (≈ 3300 µM)

Compound: COC(=O)N[C@H](C(=O)N[C@@H](Cc1ccc(C#Cc2cnc(N3CC4CCC(C3)N4C3COC3)nc2)cc1)[C@H](CN(Cc1c(F)cc(-c2ccn(C(F)F)n2)cc1F)NC(=O)[C@@H](NC(=O)OC)C(C)(C)C(F)(F)F)OC(=O)OCOC(=O)CC(C)(C)c1c(CC(=O)NCC(=O)O)cc(C)cc1OP(=O)(O)O)C(C)(C)C(F)(F)F [Example 71]
- EC50 [1, 5]: 3.9 nM
- [Compound] [2]: 1036.2 nM
- half-life at 2 μM [3]: 7.86 h
- solubility at 2 h [4]: 4420 µg/mL (≈ 2740 µM)

Compound: COC(=O)N[C@H](C(=O)N[C@@H](Cc1ccc(C#Cc2cnc(N3CC4CCC(C3)N4C3COC3)nc2)cc1)[C@H](CN(Cc1c(F)cc(-c2ccn(C(F)F)n2)cc1F)NC(=O)[C@@H](NC(=O)OC)C(C)(C)C(F)(F)F)OC(=O)OCOC(=O)CC(C)(C)c1c(CC(=O)N[C@@H](CC(N)=O)C(=O)O)cc(C)cc1OP(=O)(O)O)C(C)(C)C(F)(F)F [Example 72]
- EC50 [1, 5]: 5.4 nM
- [Compound] [2]: 827.8 nM
- half-life at 2 μM [3]: 6.12 h
- solubility at 2 h [4]: 4980 µg/mL (≈ 2980 µM)

Compound: COC(=O)N[C@H](C(=O)N[C@@H](Cc1ccc(C#Cc2cnc(N3CC4CCC(C3)N4C3COC3)nc2)cc1)[C@H](CN(Cc1c(F)cc(-c2ccn(C(F)F)n2)cc1F)NC(=O)[C@@H](NC(=O)OC)C(C)(C)C(F)(F)F)OC(=O)OCOC(=O)CC(C)(C)c1c(CC(=O)NC(C)(C)CCC(=O)O)cc(C)cc1OP(=O)(O)O)C(C)(C)C(F)(F)F [Example 73]
- EC50 [1, 5]: 4.6 nM
- [Compound] [2]: 1660.4 nM
- half-life at 2 μM [3]: 6.36 h
- solubility at 2 h [4]: 145 µg/mL (≈ 86.7 µM)

Compound: COC(=O)N[C@H](C(=O)N[C@@H](Cc1ccc(C#Cc2cnc(N3CC4CCC(C3)N4C3COC3)nc2)cc1)[C@H](CN(Cc1c(F)cc(-c2ccn(C(F)F)n2)cc1F)NC(=O)[C@@H](NC(=O)OC)C(C)(C)C(F)(F)F)OC(=O)OCOC(=O)CC(C)(C)c1c(CC(=O)N2CC[C@H](C(=O)O)C2)cc(C)cc1OP(=O)(O)O)C(C)(C)C(F)(F)F [Example 75]
- EC50 [1, 5]: 8.1 nM
- [Compound] [2]: 1420.1 nM
- half-life at 2 μM [3]: 4.77 h
- solubility at 2 h [4]: 4170 µg/mL (≈ 2520 µM)

Compound: COC(=O)N[C@H](C(=O)N[C@@H](Cc1ccc(C#Cc2cnc(N3CC4CCC(C3)N4C3COC3)nc2)cc1)[C@H](CN(Cc1c(F)cc(-c2ccn(C(F)F)n2)cc1F)NC(=O)[C@@H](NC(=O)OC)C(C)(C)C(F)(F)F)OC(=O)CC(C)(C)c1c(CC(=O)N2CCN(CC(=O)O)CC2)cc(C)cc1OP(=O)(O)O)C(C)(C)C(F)(F)F [Example 82]
- EC50 [1, 5]: 335 nM
- [Compound] [2]: 1224.3 nM
- half-life at 2 μM [3]: 6.71 h
- solubility at 2 h [4]: < 1000 µg/mL

Compound: COC(=O)N[C@H](C(=O)N[C@@H](Cc1ccc(C#Cc2cnc(N3CC4CCC(C3)N4C3COC3)nc2)cc1)[C@H](CN(Cc1c(F)cc(-c2ccn(C(F)F)n2)cc1F)NC(=O)[C@@H](NC(=O)OC)C(C)(C)C(F)(F)F)OC(=O)OCOC(=O)CC(C)(C)c1c(CC(=O)N2CCN(S(N)(=O)=O)CC2)cc(C)cc1OP(=O)(O)O)C(C)(C)C(F)(F)F [Example 85]
- EC50 [1, 5]: 2.4 nM
- [Compound] [2]: 1466.1 nM
- half-life at 2 μM [3]: 2.27 h
- solubility at 2 h [4]: < 1000 µg/mL

Compound: COC(=O)N[C@H](C(=O)N[C@@H](Cc1ccc(C#Cc2cnc(N3CC4CCC(C3)N4C3COC3)nc2)cc1)[C@H](CN(Cc1c(F)cc(-c2ccn(C(F)F)n2)cc1F)NC(=O)[C@@H](NC(=O)OC)C(C)(C)C(F)(F)F)OC(=O)OCOC(=O)CC(C)(C)c1c(CC(=O)N2CCN(S(=O)(=O)N(C)C)CC2)cc(C)cc1OP(=O)(O)O)C(C)(C)C(F)(F)F [Example 86]
- EC50 [1, 5]: 4.1 nM
- [Compound] [2]: 1890 nM
- biALP Intermediate A or [Amprenavir] (% of total) [2]: 5.6 % of total
- [Intermediate A] or [Amprenavir] [2]: 112.9 nM
- half-life at 2 μM [3]: 2.59 h
- solubility at 2 h [4]: < 1000 µg/mL
